ChEMBL document CHEMBL1201862, “PubChem BioAssay data set” (2004)
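Cells were grown in 96-well plates and exposed to each compound for 48 hours at five concentrations; endpoints were interpolated linearly between bracketing concentrations, or set to the highest concentration if not reached. Abbreviation: GI50, concentration required for 50% inhibition of growth.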 The source made the active and inactive calls. Rule as the data show it: active = GI50 up to about 1.1 µM and inactive = higher.

Tests used:
Assay in all cases: inhibition of tumour cell growth, NCI panel, 48 h
NCI-H522 = test system: NCI-H522
HOP-62 = test system: HOP-62
A549 = test system: A549
NCI-H460 = test system: NCI-H460
UACC-257 = test system: UACC-257
SNB-75 = test system: SNB-75
SF-295 = test system: SF-295
SK-MEL-5 = test system: SK-MEL-5
OVCAR-5 = test system: OVCAR-5
MCF7 = test system: MCF7
COLO 205 = test system: COLO 205
SF-539 = test system: SF-539
SN12C = test system: SN12C
HCT-15 = test system: HCT-15
SNB-19 = test system: SNB-19
EKVX = test system: EKVX
RXF 393 = test system: RXF 393
OVCAR-4 = test system: OVCAR-4
Malme-3M = test system: Malme-3M
KM12 = test system: KM12

| SMILES | GI50 (NCI-H522) | GI50 (HOP-62) | GI50 (A549) | GI50 (NCI-H460) | GI50 (UACC-257) | GI50 (SNB-75) | GI50 (SF-295) | GI50 (SK-MEL-5) | GI50 (OVCAR-5) | GI50 (MCF7) | GI50 (COLO 205) | GI50 (SF-539) | GI50 (SN12C) | GI50 (HCT-15) [µM] | GI50 (SNB-19) | GI50 (EKVX) | GI50 (RXF 393) | GI50 (OVCAR-4) | GI50 (Malme-3M) | GI50 (KM12) |
| --- | --- | --- | --- | --- | --- | --- | --- | --- | --- | --- | --- | --- | --- | --- | --- | --- | --- | --- | --- | --- |
| CCC1(N)C(=O)OCc2c1cc1n(c2=O)Cc2cc3ccccc3nc2-1 (stereo not given) | 9.51 µM (inactive) | 5.69 µM (inactive) | 6.58 µM (inactive) | 0.47 µM (active) | 36.6 µM (inactive) | 8.36 µM (inactive) | 5.31 µM (inactive) | 5.21 µM (inactive) | 44.5 µM (inactive) | 2.14 µM (inactive) | 30.5 µM (inactive) | 4.04 µM (inactive) | 3.99 µM (inactive) | 32.7 | 7.67 µM (inactive) | 51.4 µM (inactive) | 13.4 µM (inactive) | 50 µM (inactive) | 44.3 µM (inactive) | 46.1 µM (inactive) |
| N=C(N)SCC(=O)O | > 100 µM (inactive) | > 100 µM (inactive) | > 100 µM (inactive) | > 100 µM (inactive) | > 100 µM (inactive) | > 100 µM (inactive) | > 100 µM (inactive) | > 100 µM (inactive) | > 100 µM (inactive) | > 100 µM (inactive) | > 100 µM (inactive) | > 100 µM (inactive) | > 100 µM (inactive) | > 100 | > 100 µM (inactive) | > 100 µM (inactive) | > 100 µM (inactive) | > 100 µM (inactive) | > 100 µM (inactive) | > 100 µM (inactive) |
| Cn1c(=O)c2c(nc3sc4c(n32)C(=O)c2c(O)ccc(O)c2C4=O)n(C)c1=O | 0.137 µM (active) | 12.8 µM (inactive) | 12.7 µM (inactive) | 20.5 µM (inactive) | 11.2 µM (inactive) | 2.99 µM (inactive) | 31.2 µM (inactive) | 2.46 µM (inactive) | 28 µM (inactive) | 0.955 µM (active) | 3.46 µM (inactive) | 3.44 µM (inactive) | 1.63 µM (inactive) | 1.73 | > 53.1 µM (inactive) | 13 µM (inactive) | 2.68 µM (inactive) | 1.46 µM (inactive) | 1.06 µM (active) | 2.77 µM (inactive) |
| CC(C)(Cl)C(Br)CC/C(CBr)=C(/Cl)CCl.CC(C)(Cl)C(Br)CC/C(CBr)=C(\Cl)CCl (stereo not given) | 1.45 µM (inactive) | 3.92 µM (inactive) | > 10 µM (inactive) | 6.38 µM (inactive) | 2.13 µM (inactive) | 2.74 µM (inactive) | > 10 µM (inactive) | 1.82 µM (inactive) | 5.13 µM (inactive) | 2.13 µM (inactive) | 0.607 µM (active) | 2.07 µM (inactive) | 0.497 µM (active) | 2.29 | 6.15 µM (inactive) | 6.17 µM (inactive) | 2.14 µM (inactive) | 2.74 µM (inactive) | 1.9 µM (inactive) | 2.02 µM (inactive) |
| COn1cc(CO)c2ccccc21 | 21.5 µM (inactive) | > 100 µM (inactive) | > 62.1 µM (inactive) | > 100 µM (inactive) | 25.2 µM (inactive) | > 100 µM (inactive) | > 100 µM (inactive) | 64.1 µM (inactive) | 7.96 µM (inactive) | 52.7 µM (inactive) | 51.4 µM (inactive) | > 100 µM (inactive) | > 84.7 µM (inactive) | > 88.7 | > 100 µM (inactive) | > 83.2 µM (inactive) | 21.5 µM (inactive) | 34 µM (inactive) | 53 µM (inactive) | > 100 µM (inactive) |
| N#Cc1c(-c2ccccc2)cc(-c2ccccc2)n(C2OCC(O)C(O)C2O)c1=S (stereo not given) | 18.2 µM (inactive) | 25.6 µM (inactive) | 22.8 µM (inactive) | 15.4 µM (inactive) | 33.3 µM (inactive) | 24.9 µM (inactive) | 18.5 µM (inactive) | 14.7 µM (inactive) | 24.8 µM (inactive) | 20.1 µM (inactive) | 20.1 µM (inactive) | 22.2 µM (inactive) | > 10 µM (inactive) | 25.4 | 26.6 µM (inactive) | 36.2 µM (inactive) | 18.4 µM (inactive) | 24.5 µM (inactive) | 30.7 µM (inactive) | 12.9 µM (inactive) |
| Cc1ccc(/C=C2/N/C(=N\N=C/c3ccccc3)NC2=O)cc1 | 31.8 µM (inactive) | 54.6 µM (inactive) | 44.2 µM (inactive) | 31.6 µM (inactive) | > 100 µM (inactive) | 31.3 µM (inactive) | 28.9 µM (inactive) | 35 µM (inactive) | > 100 µM (inactive) | 28.8 µM (inactive) | 56.5 µM (inactive) | 44.4 µM (inactive) | 45.7 µM (inactive) | 30.9 | 25.8 µM (inactive) | 43.1 µM (inactive) | 26.5 µM (inactive) | 14.8 µM (inactive) | 42.5 µM (inactive) | > 100 µM (inactive) |
